From PubChem BioAssay AID1845204 (Molecular Pharmacology Branch, DTP, NCI, 2023)

Tested on: HSSY-II tumor spheroid viability
Assay: Anticancer human tumor HSSY-II cell line growth inhibition;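 also: spheroids exposed to compounds for seven days before reading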;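 as to viability, T/C: percent of DMSO vehicle control viability so 100% = untreated level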
Settings: spheroids with HUVEC and MSC; for IC50: curve of first compound; for viability, T/C: stronger effect = lower value
Method in brief: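 Complex tumor spheroids combined malignant cells with endothelial cells and mesenchymal stem cells. DNA-damaging drugs and DNA repair inhibitors were tested alone and in combination, at half-log dilutions down from clinical Cmax (top 10 microM if Cmax unknown), 0.25% DMSO final.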

[1] = second compound 1 µM, first compound 0.00949 µM
[2] = second compound 1 µM, first compound 0.03 µM
[3] = second compound 1 µM, first compound 0.0949 µM
[4] = second compound 1 µM, first compound 0.3 µM
[5] = second compound 1 µM, first compound 0.949 µM
[6] = second compound 1 µM, first compound 3 µM
[7] = second compound 3.16 µM, first compound 0.00949 µM
[8] = second compound 3.16 µM, first compound 0.03 µM
[9] = second compound 3.16 µM, first compound 0.0949 µM
[10] = second compound 3.16 µM, first compound 0.3 µM
[11] = second compound 3.16 µM, first compound 0.949 µM
[12] = second compound 3.16 µM, first compound 3 µM
[13] = second compound 10 µM, first compound 0.00949 µM
[14] = second compound 10 µM, first compound 0.03 µM
[15] = second compound 10 µM, first compound 0.0949 µM
[16] = second compound 10 µM, first compound 0.3 µM
[17] = second compound 10 µM, first compound 0.949 µM
[18] = second compound 10 µM, first compound 3 µM
[19] = second compound 31.6 µM, first compound 0.00949 µM
[20] = second compound 31.6 µM, first compound 0.03 µM
[21] = second compound 31.6 µM, first compound 0.0949 µM
[22] = second compound 31.6 µM, first compound 0.3 µM
[23] = second compound 31.6 µM, first compound 0.949 µM
[24] = second compound 31.6 µM, first compound 3 µM
[25] = second compound 100 µM, first compound 0.00949 µM
[26] = second compound 100 µM, first compound 0.03 µM
[27] = second compound 100 µM, first compound 0.0949 µM
[28] = second compound 100 µM, first compound 0.3 µM
[29] = second compound 100 µM, first compound 0.949 µM
[30] = second compound 100 µM, first compound 3 µM

SMILES: CNCc1ccc(-c2cc(-c3nc(-c4ccc(S(=O)(=O)C(C)C)cc4)cnc3N)on2)cc1 + Cn1nnc2c(C(N)=O)ncn2c1=O
- IC50 (second compound 1 µM): 44.1 nM
- IC50 (second compound 3.16 µM): 49.9 nM
- IC50 (second compound 10 µM): 46 nM
- IC50 (second compound 31.6 µM): 47 nM
- IC50 (second compound 100 µM): 42.7 nM
- viability, T/C [1]: 96.8%
- viability, T/C [2]: 70.5%
- viability, T/C [3]: 9.33%
- viability, T/C [4]: 4.77%
- viability, T/C [5]: 1.51%
- viability, T/C [6]: 0.14%
- viability, T/C [7]: 98.4%
- viability, T/C [8]: 81.4%
- viability, T/C [9]: 10.3%
- viability, T/C [10]: 4.71%
- viability, T/C [11]: 1.26%
- viability, T/C [12]: 0.11%
- viability, T/C [13]: 102%
- viability, T/C [14]: 74.7%
- viability, T/C [15]: 8.12%
- viability, T/C [16]: 5.47%
- viability, T/C [17]: 1.58%
- viability, T/C [18]: 0.12%
- viability, T/C [19]: 100%
- viability, T/C [20]: 75%
- viability, T/C [21]: 10.7%
- viability, T/C [22]: 4.8%
- viability, T/C [23]: 2.03%
- viability, T/C [24]: 0.15%
- viability, T/C [25]: 91.3%
- viability, T/C [26]: 69.4%
- viability, T/C [27]: 5.96%
- viability, T/C [28]: 4.82%
- viability, T/C [29]: 1.42%
- viability, T/C [30]: 0.2%

SMILES: COc1ccc([C@@H](O)c2cc(-c3ncnc4cc(N5CCOCC5)ccc34)c(F)cc2Cl)nn1 + Cn1nnc2c(C(N)=O)ncn2c1=O
- IC50 (second compound 1 µM): 2230 nM
- IC50 (second compound 3.16 µM): 1920 nM
- IC50 (second compound 10 µM): 1910 nM
- IC50 (second compound 31.6 µM): 1880 nM
- IC50 (second compound 100 µM): 1060 nM
- viability, T/C (second compound 1 µM, first compound 0.0316 µM): 102%
- viability, T/C (second compound 1 µM, first compound 0.1 µM): 95.8%
- viability, T/C (second compound 1 µM, first compound 0.316 µM): 90.8%
- viability, T/C (second compound 1 µM, first compound 1 µM): 64.5%
- viability, T/C (second compound 1 µM, first compound 3.16 µM): 44%
- viability, T/C (second compound 1 µM, first compound 10 µM): 13.5%
- viability, T/C (second compound 3.16 µM, first compound 0.0316 µM): 100%
- viability, T/C (second compound 3.16 µM, first compound 0.1 µM): 94.3%
- viability, T/C (second compound 3.16 µM, first compound 0.316 µM): 88.7%
- viability, T/C (second compound 3.16 µM, first compound 1 µM): 63.5%
- viability, T/C (second compound 3.16 µM, first compound 3.16 µM): 39.4%
- viability, T/C (second compound 3.16 µM, first compound 10 µM): 16.8%
- viability, T/C (second compound 10 µM, first compound 0.0316 µM): 94%
- viability, T/C (second compound 10 µM, first compound 0.1 µM): 92.1%
- viability, T/C (second compound 10 µM, first compound 0.316 µM): 89.6%
- viability, T/C (second compound 10 µM, first compound 1 µM): 66.6%
- viability, T/C (second compound 10 µM, first compound 3.16 µM): 36.8%
- viability, T/C (second compound 10 µM, first compound 10 µM): 15.9%
- viability, T/C (second compound 31.6 µM, first compound 0.0316 µM): 98%
- viability, T/C (second compound 31.6 µM, first compound 0.1 µM): 98.2%
- viability, T/C (second compound 31.6 µM, first compound 0.316 µM): 81.5%
- viability, T/C (second compound 31.6 µM, first compound 1 µM): 64.8%
- viability, T/C (second compound 31.6 µM, first compound 3.16 µM): 38.5%
- viability, T/C (second compound 31.6 µM, first compound 10 µM): 20.6%
- viability, T/C (second compound 100 µM, first compound 0.0316 µM): 83.2%
- viability, T/C (second compound 100 µM, first compound 0.1 µM): 83%
- viability, T/C (second compound 100 µM, first compound 0.316 µM): 70.7%
- viability, T/C (second compound 100 µM, first compound 1 µM): 48%
- viability, T/C (second compound 100 µM, first compound 3.16 µM): 32.3%
- viability, T/C (second compound 100 µM, first compound 10 µM): 12.8%

SMILES: Cc1sc2c(c1C)C(c1ccc(Cl)cc1)=NC(CC(=O)Nc1ccc(O)cc1)c1nnc(C)n1-2 (stereo not given) + Cn1nnc2c(C(N)=O)ncn2c1=O
- IC50 (second compound 1 µM): 164 nM
- IC50 (second compound 3.16 µM): 178 nM
- IC50 (second compound 10 µM): 158 nM
- IC50 (second compound 31.6 µM): 194 nM
- IC50 (second compound 100 µM): 169 nM
- viability, T/C [1]: 98.5%
- viability, T/C [2]: 85.1%
- viability, T/C [3]: 64.7%
- viability, T/C [4]: 34.3%
- viability, T/C [5]: 19.3%
- viability, T/C [6]: 12.8%
- viability, T/C [7]: 101%
- viability, T/C [8]: 90.6%
- viability, T/C [9]: 65.9%
- viability, T/C [10]: 35.9%
- viability, T/C [11]: 21.6%
- viability, T/C [12]: 12%
- viability, T/C [13]: 101%
- viability, T/C [14]: 92.9%
- viability, T/C [15]: 62.3%
- viability, T/C [16]: 32.6%
- viability, T/C [17]: 20.1%
- viability, T/C [18]: 11.2%
- viability, T/C [19]: 105%
- viability, T/C [20]: 98%
- viability, T/C [21]: 69.3%
- viability, T/C [22]: 37.3%
- viability, T/C [23]: 18.7%
- viability, T/C [24]: 8.46%
- viability, T/C [25]: 98.1%
- viability, T/C [26]: 89.5%
- viability, T/C [27]: 68.7%
- viability, T/C [28]: 31.2%
- viability, T/C [29]: 13.2%
- viability, T/C [30]: 5.25%
